In PMC9646841, “A bead-based GPCR phosphorylation immunoassay for high-throughput ligand profiling and GRK inhibitor screening” (Communications Biology, 2022):
Several values for one entry are separate records, joined by “and”; a condition that tells them apart may be missing. Equal entries are not always repeated. Where two headings read alike, the source gives them in different places. Square brackets hold non-standard residues; d marks the D form. Peptide text beside a SMILES is read from it. Cha = N[C@@H](CC1CCCCC1)C(=O)O; dCha = N[C@H](CC1CCCCC1)C(=O)O

What was measured:
[1] = target: T1, C5a1 (Homo sapiens, UniProt P21730); assay: pS332/pS334-C5a1 7TM phosphorylation assay; format: cell-based; settings: for Emax: read-out: Emax (% Control C028) pS332/pS334-C5a1
T1 construct: host or cells: Control-HEK293, ΔGRK2/3-HEK293, ΔGRK5/6-HEK293, stably expressing
T1 sequence (P21730 1-350): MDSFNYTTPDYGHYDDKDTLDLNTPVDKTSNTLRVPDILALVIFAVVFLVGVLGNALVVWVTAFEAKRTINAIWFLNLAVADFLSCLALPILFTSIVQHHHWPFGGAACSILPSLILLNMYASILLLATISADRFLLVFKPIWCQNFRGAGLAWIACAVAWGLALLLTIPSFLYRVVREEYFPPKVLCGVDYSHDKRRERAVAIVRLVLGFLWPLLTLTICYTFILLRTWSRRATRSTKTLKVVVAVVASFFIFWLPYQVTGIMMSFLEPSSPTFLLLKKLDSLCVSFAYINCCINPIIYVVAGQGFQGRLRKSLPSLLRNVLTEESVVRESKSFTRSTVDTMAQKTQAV

[2] = target: T1, C5a1; assay: Total C5a1 loading control (np-C5a1 / anti-HA); format: cell-based
[3] = ΔGRK2/3-C5aR1-HEK293, C028 0.01 µM, concentration series
[4] = ΔGRK2/3-C5aR1-HEK293, C028 1 µM, concentration series
[5] = ΔGRK2/3-C5aR1-HEK293, C028 10 µM (concentration series)

SMILES: N=C(N)NCCC[C@@H](NC(=O)[C@H](CC1CCCCC1)NC(=O)[C@@H](CC1CCCCC1)NC(=O)[C@@H]1CCCN1C(=O)[C@H](CCCCN)NC(=O)[C@@H](N)Cc1ccccc1)C(=O)O [C028, FKP-(D-Cha)-Cha-r] (H-FKP[dCha][Cha][dR]-OH)
- EC50 ([1]; pEC50 pS332/pS334-C5a1, Control-HEK293): 398 nM
- EC50 ([1]; pEC50 pS332/pS334-C5a1, ΔGRK2/3-HEK293): 501 nM
- pS332/pS334 (raw signal) [1, 3]: 0.1764 and 0.1748 and 0.1484 and 0.1388 and 0.1181 and 0.1479 and 0.1441
- pS332/pS334 (raw signal) [1, 4]: 0.699 and 0.3955 and 0.6071 and 0.387 and 0.4065 and 0.4411 and 0.6614 and 0.6847
- pS332/pS334 (raw signal) ([1]; ΔGRK2/3-C5aR1-HEK293, C028 10 µM, first 0/10 µM column pair): 0.4715 and 0.6645 and 0.5267 and 0.3753 and 0.6914 and 0.6912 and 0.5711 and 0.6282
- Emax ([1]; ΔGRK2/3-HEK293): 70.2%
- Emax ([1]; ΔGRK5/6-HEK293): 50.8%
- np signal, raw ([2]; C028 0.01 µM, Control-C5aR1-HEK293): 1.7187 and 1.7849 and 1.2842 and 1.2491 and 1.8947
- np signal, raw ([2]; C028 0.01 µM, ΔGRK2/3-C5aR1-HEK293): 1.3719 and 1.658 and 1.494 and 1.3769 and 1.8182
- np signal, raw ([2]; C028 0.1 µM, Control-C5aR1-HEK293): 1.8405 and 1.7894 and 1.13 and 1.0755 and 1.6047
- np signal, raw ([2]; C028 0.1 µM, ΔGRK2/3-C5aR1-HEK293): 1.6138 and 1.8688 and 1.3994 and 1.4066 and 1.6881
- np signal, raw ([2]; C028 0.1 µM, ΔGRK5/6-C5aR1-HEK293): 1.983 and 1.7745 and 1.5114 and 1.8261 and 1.6189
- np signal, raw ([2]; C028 0.3 µM, ΔGRK5/6-C5aR1-HEK293): 1.6298 and 1.4921 and 1.6333 and 1.6817 and 1.6758
- np signal, raw ([2]; C028 1 µM, ΔGRK2/3-C5aR1-HEK293): 1.3996 and 1.4952 and 2.1996 and 1.4182 and 2.2245
- np signal, raw ([2]; C028 1 µM, ΔGRK5/6-C5aR1-HEK293): 1.9501 and 1.5997 and 1.4175 and 1.1243 and 1.5682
- np signal, raw ([2]; C028 3 µM, Control-C5aR1-HEK293): 1.9121 and 1.6861 and 1.569 and 1.3939 and 2.1397
- np signal, raw ([2]; C028 3 µM, ΔGRK2/3-C5aR1-HEK293): 1.5651 and 1.596 and 2.1319 and 1.2489 and 1.5422
- np signal, raw ([2]; C028 3 µM, ΔGRK5/6-C5aR1-HEK293): 1.6842 and 1.511 and 1.6612 and 1.9363 and 1.5067
- np signal, raw ([2]; C028 10 µM, Control-C5aR1-HEK293, concentration series): 1.6592 and 1.6457 and 1.7245 and 1.2748 and 1.696
- np signal, raw ([2]; C028 10 µM, Control-C5aR1-HEK293, first 0/10 µM pair): 1.6592 and 1.6457 and 1.3473 and 1.1686 and 1.879
- np signal, raw ([2]; C028 10 µM, Control-C5aR1-HEK293, last 0/10 µM pair of Control block): 1.9885 and 1.4944 and 1.4087 and 1.155 and 1.5321
- np signal, raw ([2]; C028 10 µM, Control-C5aR1-HEK293 beside ΔGRK2/3 block): 2.0332 and 1.1801 and 1.5046 and 1.4934 and 1.6943
- np signal, raw ([2]; C028 10 µM, Control-C5aR1-HEK293 beside ΔGRK5/6 block): 1.9038 and 2.0072 and 1.4662 and 1.7694 and 1.271
- np signal, raw ([2]; C028 10 µM, ΔGRK2/3-C5aR1-HEK293, concentration series): 1.5246 and 1.7106 and 1.3042 and 1.3389 and 1.7008
- np signal, raw ([2]; C028 10 µM, ΔGRK2/3-C5aR1-HEK293, first 0/10 µM pair): 1.2045 and 1.6486 and 1.422 and 1.3225 and 1.7342
- np signal, raw ([2]; C028 10 µM, ΔGRK5/6-C5aR1-HEK293, concentration series): 2.2585 and 1.8872 and 1.4472 and 1.4134 and 1.6269
- np signal, raw ([2]; C028 10 µM, ΔGRK5/6-C5aR1-HEK293, first 0/10 µM pair): 2.1115 and 2.0551 and 1.5281 and 1.3721 and 1.3579
- np (raw signal) ([2]; Control-C5aR1-HEK293, C028 0.01 µM, concentration series): 1.9803 and 1.5907 and 1.3538 and 1.2438 and 1.436 and 1.5903 and 1.7448 and 1.269
- np (raw signal) ([2]; Control-C5aR1-HEK293, C028 0.3 µM, concentration series): 1.588 and 1.7265 and 1.5961 and 0.9789 and 1.4851 and 1.7215 and 1.957 and 1.5097
- np (total C5aR1), raw signal ([2]; Control-C5aR1-HEK293, C028 0.01 µM): 1.3949 and 1.3266 and 1.5751 and 1.603 and 1.9857 and 2.1902
- np (total C5aR1), raw signal ([2]; Control-C5aR1-HEK293, C028 0.1 µM): 1.088 and 1.5141 and 1.6432 and 1.3119 and 2.129 and 1.8032
- np (total C5aR1), raw signal ([2]; Control-C5aR1-HEK293, C028 0.3 µM): 1.3568 and 1.8238 and 1.5485 and 1.2855 and 1.9306 and 1.5751
- np (total C5aR1), raw signal ([2]; Control-C5aR1-HEK293, C028 1 µM): 1.4754 and 1.6232 and 1.785 and 1.3295 and 1.6944 and 2.063
- np (total C5aR1), raw signal ([2]; Control-C5aR1-HEK293, C028 3 µM): 1.2425 and 1.4862 and 1.9242 and 1.5919 and 2.0564 and 1.6025
- np (total C5aR1), raw signal ([2]; Control-C5aR1-HEK293 beside ΔGRK5/6 series, C028 10 µM): 2.3386 and 2.3729 and 1.6554 and 1.7709 and 1.3577 and 1.3562 and 1.5255
- np (raw signal) ([2]; Control-C5aR1-HEK293 run beside the ΔGRK2/3 block, C028 10 µM): 1.8085 and 2.0631 and 1.4603 and 1.3915 and 1.4955 and 1.1807
- np (raw signal) ([2]; Control-C5aR1-HEK293 run beside the ΔGRK5/6 block, C028 10 µM): 1.9033 and 1.7695 and 1.3647 and 1.1555 and 2.1969 and 1.68 and 1.7195 and 1.5597
- np (raw signal) [2, 3]: 1.9037 and 1.8736 and 1.6092 and 1.5411 and 1.8666 and 1.9049 and 1.8208 and 1.3708
- np (raw signal) ([2]; ΔGRK2/3-C5aR1-HEK293, C028 0.1 µM, concentration series): 1.8343 and 1.6381 and 1.9187 and 1.6055 and 2.1604 and 1.5161 and 1.9037 and 1.8736
- np (raw signal) ([2]; ΔGRK2/3-C5aR1-HEK293, C028 0.3 µM, concentration series): 1.6659 and 1.792 and 1.7372 and 1.7036 and 2.059 and 1.9288 and 1.8343 and 1.6381
- np (raw signal) [2, 4]: 1.7539 and 1.6924 and 1.7772 and 1.4498 and 2.0307 and 1.5417 and 1.6659 and 1.792
- np (raw signal) ([2]; ΔGRK2/3-C5aR1-HEK293, C028 3 µM, concentration series): 1.6846 and 1.3473 and 1.4287 and 1.3661 and 2.0103 and 1.5757 and 1.7539 and 1.6924
- np (total C5aR1), raw signal ([2]; ΔGRK2/3-C5aR1-HEK293, C028 0.01 µM): 1.9989 and 2.1791 and 2.1472 and 1.695 and 1.8681 and 1.8947 and 1.79
- np (total C5aR1), raw signal ([2]; ΔGRK2/3-C5aR1-HEK293, C028 0.1 µM): 2.1466 and 2.0776 and 2.1938 and 2.0797 and 1.633 and 1.3767 and 1.2578
- np (total C5aR1), raw signal ([2]; ΔGRK2/3-C5aR1-HEK293, C028 0.3 µM): 1.9738 and 1.8316 and 2.0611 and 2.0567 and 1.8444 and 1.4691 and 1.6375
- np (total C5aR1), raw signal ([2]; ΔGRK2/3-C5aR1-HEK293, C028 1 µM): 1.8294 and 2.1206 and 2.1815 and 1.9867 and 1.4524 and 1.8069 and 1.3881
- np (total C5aR1), raw signal ([2]; ΔGRK2/3-C5aR1-HEK293, C028 3 µM): 1.9342 and 1.5491 and 2.0615 and 1.8761 and 1.3783 and 1.8045 and 1.3094
- np (total C5aR1), raw signal ([2]; ΔGRK2/3-C5aR1-HEK293, C028 10 µM (0/10 µM pair)): 1.6776 and 1.597 and 2.0065 and 1.9839 and 1.7864 and 1.8111 and 1.5147
- np (raw signal) [2, 5]: 1.6617 and 1.8239 and 1.3136 and 1.3724 and 1.8559 and 1.6
- np (total C5aR1), raw signal [2, 5]: 2.0002 and 1.769 and 2.052 and 2.2047 and 1.6138 and 1.7275 and 1.9566
- np (raw signal) ([2]; ΔGRK5/6-C5aR1-HEK293, C028 0.3 µM, concentration series): 1.7318 and 1.8541 and 1.5067 and 1.2715 and 1.8493 and 2.0046 and 1.7672 and 1.7676
- np (raw signal) ([2]; ΔGRK5/6-C5aR1-HEK293, C028 1 µM, concentration series): 2.0252 and 1.7968 and 1.4934 and 1.2437 and 2.0647 and 1.7841 and 1.4601 and 1.5886
- np (raw signal) ([2]; ΔGRK5/6-C5aR1-HEK293, C028 10 µM, first 0/10 µM column pair): 1.7829 and 1.9246 and 1.5744 and 1.3841 and 1.8642 and 1.9552 and 1.5996 and 1.6914
- np (total C5aR1), raw signal ([2]; ΔGRK5/6-C5aR1-HEK293, C028 10 µM (0/10 µM pair)): 1.7545 and 1.6551 and 1.4386 and 1.778 and 1.4304 and 1.6743 and 2.0075
- np (total C5aR1), raw signal ([2]; ΔGRK5/6-C5aR1-HEK293, C028 10 µM (concentration series)): 1.8811 and 1.8348 and 1.6561 and 1.4006 and 1.0888 and 1.1737 and 1.1522
